{"source": "patent US12697326B2", "about": "“Methods of treating hepatic encephalopathy” (SALIX PHARMACEUTICALS, INC., priority 2008, dated 2026)", "system": "breakthrough HE episode in subjects with hepatic encephalopathy (HE)", "experiment": "Time to first breakthrough (overt) HE episode, first study, rifaximin vs placebo", "type": "in vivo, human", "text": "An increase in the Conn score of greater than or equal to grade 2 was considered as a breakthrough HE episode.\nAn efficacy endpoint was the time to first breakthrough overt HE episode. A breakthrough overt HE episode was defined as an increase of Conn score to Grade ≥2 (e.g., 0) or 1 to ≥2) or an increase in Conn and asterixis score of 1 grade each for those subjects who entered the study with a Conn score of 0. Time to breakthrough overt HE episode was the duration from time of first dose of study drug to the first breakthrough overt HE episode. […] Subjects who terminated early for reasons other than breakthrough overt HE were contacted at 6 months from randomization to determine if subjects had experienced a breakthrough overt HE episode or other outcome (e.g., mortality status); and, if the subject had no breakthrough overt HE event prior to contact, he/she was censored at the time of contact. […] Subjects in the study had ≥2 episodes of overt HE equivalent to Conn score ≥2 within 6 months prior to screening (i.e., subjects had documented recurrent, overt HE). At the baseline assessment, subjects were in remission with a Conn score of 0 or 1. A breakthrough overt HE episode, as defined above, was a marked deterioration in neurological function.\nPresented herein are the results of the first study and second study. […] The primary efficacy endpoint was the time to breakthrough overt HE. Breakthrough overt HE was defined as an increase of Conn score to Grade ≥2 (e.g., 0 or 1 to ≥2) or an increase in Conn and asterixis score of 1 grade each for those subjects who entered the study with a Conn score of 0. Subjects discontinued from the study at the time of breakthrough overt HE episode. After participation in the first study, subjects had the option to enroll in the open-label, treatment-extension study (the second study).\nFIG. 1 illustrates Kaplan-Meier estimates of time to first breakthrough overt HE episode by treatment group in the ITT population. Table 18 presents Kaplan-Meier estimates of the proportions of subjects who experienced breakthrough overt HE over the course of the Treatment Period and results of statistical analyses. […] Subjects who terminated early for reasons other than breakthrough overt HE (eg, liver transplant, AE, subject request) were contacted at 6 months from date of randomization to determine if subjects had experienced a breakthrough overt HE episode or other outcome (e.g., mortality status). Subjects without breakthrough overt HE were censored at the time of contact or death, whichever was earlier.", "key": {"[1]": {"conditions": "breakthrough HE episode by baseline Conn score level, 550 mg BID, N = 93, Days >= 168"}, "[2]": {"conditions": "breakthrough HE episode by baseline Conn score level; 550 mg BID; N = 93; Days [0-28)"}, "[3]": {"conditions": "breakthrough HE episode by baseline Conn score level; 550 mg BID; N = 93; Days [28-56)"}, "[4]": {"conditions": "breakthrough HE episode by baseline Conn score level; 550 mg BID; N = 93; Days [56-84)"}, "[5]": {"conditions": "breakthrough HE episode by baseline Conn score level; 550 mg BID; N = 93; Days [84-140)"}, "[6]": {"conditions": "breakthrough HE episode by baseline Conn score level; 550 mg BID; N = 93; Days [140-168)"}, "[7]": {"conditions": "breakthrough HE episode by baseline MELD score level, 550 mg BID, N = 11, Days >=168"}, "[8]": {"conditions": "breakthrough HE episode by baseline MELD score level; 550 mg BID; N = 11; Days [0-28)"}, "[9]": {"conditions": "breakthrough HE episode by baseline MELD score level; 550 mg BID; N = 11; Days [28-56)"}, "[10]": {"conditions": "breakthrough HE episode by baseline MELD score level; 550 mg BID; N = 11; Days [56-84)"}, "[11]": {"conditions": "breakthrough HE episode by baseline MELD score level; 550 mg BID; N = 11; Days [84-140)"}, "[12]": {"conditions": "breakthrough HE episode by baseline MELD score level; 550 mg BID; N = 11; Days [140-168)"}, "[13]": {"conditions": "breakthrough HE episode by baseline MELD score level, 550 mg BID, N = 34, Days >=168"}, "[14]": {"conditions": "breakthrough HE episode by baseline MELD score level; 550 mg BID; N = 34; Days [0-28)"}, "[15]": {"conditions": "breakthrough HE episode by baseline MELD score level; 550 mg BID; N = 34; Days [28-56)"}, "[16]": {"conditions": "breakthrough HE episode by baseline MELD score level; 550 mg BID; N = 34; Days [56-84)"}, "[17]": {"conditions": "breakthrough HE episode by baseline MELD score level; 550 mg BID; N = 34; Days [84-140)"}, "[18]": {"conditions": "breakthrough HE episode by baseline MELD score level; 550 mg BID; N = 34; Days [140-168)"}, "[19]": {"conditions": "breakthrough HE episode by baseline MELD score level, 550 mg BID, N = 85, Days >=168"}, "[20]": {"conditions": "breakthrough HE episode by baseline MELD score level; 550 mg BID; N = 85; Days [0-28)"}, "[21]": {"conditions": "breakthrough HE episode by baseline MELD score level; 550 mg BID; N = 85; Days [28-56)"}, "[22]": {"conditions": "breakthrough HE episode by baseline MELD score level; 550 mg BID; N = 85; Days [56-84)"}, "[23]": {"conditions": "breakthrough HE episode by baseline MELD score level; 550 mg BID; N = 85; Days [84-140)"}, "[24]": {"conditions": "breakthrough HE episode by baseline MELD score level; 550 mg BID; N = 85; Days [140-168)"}, "[25]": {"conditions": "breakthrough HE episode by prior lactulose use, 550 mg BID, N = 123, Days >=168"}}, "data": [{"compound": "CO[C@H]1/C=C/O[C@@]2(C)Oc3c(C)c(O)c4c(O)c(c5c(nc6cc(C)ccn65)c4c3C2=O)NC(=O)/C(C)=C\\C=C\\[C@H](C)[C@H](O)[C@@H](C)[C@@H](O)[C@@H](C)[C@H](OC(C)=O)[C@@H]1C", "note": "[Rifaximin]", "values": [{"measurement": "Cumulative Occurrences of Events", "setting": "[1]", "value": 19}, {"measurement": "Occurrences of Events", "setting": "[1]", "value": 0}, {"measurement": "Survival", "setting": "[1]", "value": 0.7924}, {"measurement": "Occurrences of Events", "setting": "[2]", "value": 11}, {"measurement": "Survival", "setting": "[2]", "value": 1.0000}, {"measurement": "Occurrences of Events", "setting": "[3]", "value": 3}, {"measurement": "Survival", "setting": "[3]", "value": 0.8817}, {"measurement": "Occurrences of Events", "setting": "[4]", "value": 1}, {"measurement": "Survival", "setting": "[4]", "value": 0.8491}, {"measurement": "Occurrences of Events", "setting": "[5]", "value": 3}, {"measurement": "Survival", "setting": "[5]", "value": 0.8380}, {"measurement": "Occurrences of Events", "setting": "[6]", "value": 1}, {"measurement": "Survival", "setting": "[6]", "value": 0.8042}, {"measurement": "Cumulative Occurrences of Events", "setting": "[7]", "value": 4}, {"measurement": "Occurrences of Events", "setting": "[7]", "value": 0}, {"measurement": "Survival", "setting": "[7]", "value": 0.6364}, {"measurement": "Cumulative Occurrences of Events", "setting": "[8]", "value": 1}, {"measurement": "Occurrences of Events", "setting": "[8]", "value": 1}, {"measurement": "Survival", "setting": "[8]", "value": 1.0000}, {"measurement": "Cumulative Occurrences of Events", "setting": "[9]", "value": 1}, {"measurement": "Occurrences of Events", "setting": "[9]", "value": 0}, {"measurement": "Survival", "setting": "[9]", "value": 0.9091}, {"measurement": "Cumulative Occurrences of Events", "setting": "[10]", "value": 4}, {"measurement": "Occurrences of Events", "setting": "[10]", "value": 3}, {"measurement": "Survival", "setting": "[10]", "value": 0.9091}, {"measurement": "Cumulative Occurrences of Events", "setting": "[11]", "value": 4}, {"measurement": "Occurrences of Events", "setting": "[11]", "value": 0}, {"measurement": "Survival", "setting": "[11]", "value": 0.6364}, {"measurement": "Cumulative Occurrences of Events", "setting": "[12]", "value": 4}, {"measurement": "Occurrences of Events", "setting": "[12]", "value": 0}, {"measurement": "Survival", "setting": "[12]", "value": 0.6364}, {"measurement": "Cumulative Occurrences of Events", "setting": "[13]", "value": 2}, {"measurement": "Occurrences of Events", "setting": "[13]", "value": 0}, {"measurement": "Survival", "setting": "[13]", "value": 0.9398}, {"measurement": "Cumulative Occurrences of Events", "setting": "[14]", "value": 1}, {"measurement": "Occurrences of Events", "setting": "[14]", "value": 1}, {"measurement": "Survival", "setting": "[14]", "value": 1.0000}, {"measurement": "Cumulative Occurrences of Events", "setting": "[15]", "value": 1}, {"measurement": "Occurrences of Events", "setting": "[15]", "value": 0}, {"measurement": "Survival", "setting": "[15]", "value": 0.9706}, {"measurement": "Cumulative Occurrences of Events", "setting": "[16]", "value": 1}, {"measurement": "Occurrences of Events", "setting": "[16]", "value": 0}, {"measurement": "Survival", "setting": "[16]", "value": 0.9706}, {"measurement": "Cumulative Occurrences of Events", "setting": "[17]", "value": 2}, {"measurement": "Occurrences of Events", "setting": "[17]", "value": 1}, {"measurement": "Survival", "setting": "[17]", "value": 0.9706}, {"measurement": "Cumulative Occurrences of Events", "setting": "[18]", "value": 2}, {"measurement": "Occurrences of Events", "setting": "[18]", "value": 0}, {"measurement": "Survival", "setting": "[18]", "value": 0.9398}, {"measurement": "Cumulative Occurrences of Events", "setting": "[19]", "value": 20}, {"measurement": "Occurrences of Events", "setting": "[19]", "value": 0}, {"measurement": "Survival", "setting": "[19]", "value": 0.7580}, {"measurement": "Cumulative Occurrences of Events", "setting": "[20]", "value": 8}, {"measurement": "Occurrences of Events", "setting": "[20]", "value": 8}, {"measurement": "Survival", "setting": "[20]", "value": 1.0000}, {"measurement": "Cumulative Occurrences of Events", "setting": "[21]", "value": 10}, {"measurement": "Occurrences of Events", "setting": "[21]", "value": 2}, {"measurement": "Survival", "setting": "[21]", "value": 0.9059}, {"measurement": "Cumulative Occurrences of Events", "setting": "[22]", "value": 13}, {"measurement": "Occurrences of Events", "setting": "[22]", "value": 3}, {"measurement": "Survival", "setting": "[22]", "value": 0.8822}, {"measurement": "Cumulative Occurrences of Events", "setting": "[23]", "value": 19}, {"measurement": "Occurrences of Events", "setting": "[23]", "value": 6}, {"measurement": "Survival", "setting": "[23]", "value": 0.8459}, {"measurement": "Cumulative Occurrences of Events", "setting": "[24]", "value": 20}, {"measurement": "Occurrences of Events", "setting": "[24]", "value": 1}, {"measurement": "Survival", "setting": "[24]", "value": 0.7713}, {"measurement": "Cumulative Occurrences of Events", "setting": "[25]", "value": 29}, {"measurement": "Occurrences of Events", "setting": "[25]", "value": 0}, {"measurement": "Survival", "setting": "[25]", "value": 0.7586}, {"measurement": "Cumulative Occurrences of Events", "setting": "breakthrough HE episode by prior lactulose use; 550 mg BID; N = 123; Days [0-28)", "value": 12}]}]}
